Results as given in patent US8071581B2, “Triazolopyridazine protein kinase modulators” (SGX Pharmaceuticals, Inc., priority 2006, dated 2011).
pEC50, pIC50: −log10 of the molar value.

Tests used:
GTL16 = GTL16 cell assay (EC50); assay type: cell-based; conditions: Homo sapiens, GTL 16
Description: Compounds were tested in the following assays in duplicate. 96-well XTT assay: Cells were grown in growth media containing various concentrations of compounds (duplicates) on a 96-well flat bottom plate for 72 hours at 37° C. in 5% CO2. The starting cell number was 5000 cells per well and volume was 120 μl. At the end of the 72-hour incubation, 40 μl of XTT labeling mixture (50:1 solution of sodium 3′-[1-(phenylaminocarbonyl)-3,4-tetrazolium]-bis(4-methoxy-6-nitro) benzene sulfonic acid hydrate and Electron-coupling reagent: PMS (N-methyl dibenzopyrazine methyl sulfate) were added to each well of the plate. After an additional 2-6 hours […] with a spectrophotometer.

[1] = target: MET kinase (c-MET), kinase domain of human Met (Homo sapiens, UniProt P08581); test: MET luminescence-based enzyme assay (Kinase-Glo)
MET kinase (c-MET), kinase domain of human Met, sequence (P08581 1078-1345 limits assumed): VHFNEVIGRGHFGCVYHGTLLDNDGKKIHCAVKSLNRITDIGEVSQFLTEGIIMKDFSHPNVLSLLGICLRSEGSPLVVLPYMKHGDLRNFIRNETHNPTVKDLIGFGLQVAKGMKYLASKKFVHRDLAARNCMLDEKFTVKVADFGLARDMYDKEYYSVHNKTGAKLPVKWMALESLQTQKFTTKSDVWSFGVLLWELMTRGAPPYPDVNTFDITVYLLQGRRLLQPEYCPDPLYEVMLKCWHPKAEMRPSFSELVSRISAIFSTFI

Compound	pEC50 (GTL16; Table 1)	pIC50 [1]	pEC50 (GTL16; Table 2)
Fc1ccccc1-c1ccc2nnc(Cc3ccc4ncccc4c3)n2n1 [compound 53]	6.00 to 7.00	6.00 to 7.00	
O=S(=O)(c1ccc(-c2ccc3nnc(Cc4ccc5ncccc5c4)n3n2)cc1)N1CCOCC1 [compound 62]	6.00 to 7.00	> 7.00	
Cn1cnc2ccc(Cc3nnc4ccc(-c5ccccc5)nn34)cc21 [compound 68, 3-(3-Methyl-3H-benzoimidazol-5-ylmethyl)-6-phenyl-[1,2,4]triazolo[4,3-b]pyridazine]	6.00 to 7.00	6.00 to 7.00	
O=C(NCC(F)(F)F)c1ccc(-c2ccc3nnc(Cc4ccc5ncccc5c4)n3n2)cc1 [compound 72]	6.00 to 7.00	> 7.00	
O=C(NCCO)c1ccc(-c2ccc3nnc(Cc4ccc5ncccc5c4)n3n2)cc1F [compound 74]	6.00 to 7.00	> 7.00	
Fc1ccc(-c2ccc3nnc(Cc4ccc5ncccc5c4)n3n2)cc1C(F)(F)F [compound 77]	> 7.00	6.00 to 7.00	
CNC(=O)c1ccc(-c2ccc3nnc(C(C)c4ccc5ncccc5c4)n3n2)cc1F (centres unmarked) [compound 80]	> 7.00	> 7.00	
CC(c1ccc2ncsc2c1)c1nnc2ccc(-c3cccc(C#N)c3)nn12 (centres unmarked) [compound 81]	> 7.00	> 7.00	
CNC(=O)c1ccc(-c2ccc3nnc(C(C)c4ccc5ncsc5c4)n3n2)cc1F (centres unmarked) [compound 82]	> 7.00	> 7.00	
N#Cc1cccc(-c2ccc3nnc(Cc4c(F)cc5ncccc5c4F)n3n2)c1 [compound 88]	> 7.00	> 7.00	
CNC(=O)c1ccc(-c2ccc3nnc(Cc4c(F)cc5ncccc5c4F)n3n2)cc1F [compound 89]	> 7.00	> 7.00	
CCNC(=O)c1ccc(-c2ccc3nnc(Cc4ccc5ncsc5c4)n3n2)cc1F [compound 94]	6.00 to 7.00	6.00 to 7.00	
CC(C)NC(=O)c1ccc(-c2ccc3nnc(Cc4ccc5ncsc5c4)n3n2)cc1F [compound 95]	6.00 to 7.00	> 7.00	
N#Cc1cccc(-c2ccc3nnc(Cc4ccc5ncsc5c4)n3n2)c1 [compound 98]	6.00 to 7.00	6.00 to 7.00	
CNC(=O)c1ccc(-c2ccc3nnc(Cc4ccc5ncsc5c4)n3n2)cc1F [compound 101]	6.00 to 7.00	> 7.00	
CS(=O)(=O)c1cccc(-c2ccc3nnc(Cc4ccc5ncsc5c4)n3n2)c1 [compound 102]	6.00 to 7.00	> 7.00	
C[C@@H](c1ccc2ncsc2c1)c1nnc2ccc(-c3cccc(C#N)c3)nn12 [compound 103, (S)-3-[3-(1-Benzothiazol-6-yl-ethyl)-[1,2,4]triazolo[4,3-b]pyridazin-6-yl]-benzonitrile]	> 7.00	> 7.00	

Compound	pEC50 (GTL16; Table 1)	pIC50 [1]	pEC50 (GTL16; Table 2)
C=Cc1ccc2nnc(Cc3ccc4ncccc4c3)n2n1 [compound 107]	6.00 to 7.00	6.00 to 7.00	
c1cnc2ccc(Cc3nnc4ccc(C5CC5)nn34)cc2c1 [compound 109, 6-(6-Cyclopropyl-[1,2,4]triazolo[4,3-b]pyridazin-3-ylmethyl)-quinoline]	6.00 to 7.00	6.00 to 7.00	
Fc1cc2ncccc2c(F)c1Cc1nnc2ccc(Cl)nn12 [compound 111, 6-(6-Chloro-[1,2,4]triazolo[4,3-b]pyridazin-3-ylmethyl)-5,7-difluoro-quinoline]	6.00 to 7.00	6.00 to 7.00	
c1cnc2ccc(Cc3nnc4ccc(N5CCCCC5)nn34)cc2c1 [compound 112]	6.00 to 7.00	6.00 to 7.00	
CN1CCN(c2ccc3nnc(Cc4ccc5ncccc5c4)n3n2)CC1 [compound 113]	6.00 to 7.00	6.00 to 7.00	
Brc1cnc2ccc(Cc3nnc4nccnn34)cc2c1 [compound 117, 3-Bromo-6-[1,2,4]triazolo[4,3-b][1,2,4]triazin-3-ylmethyl-quinoline]	> 7.00	> 7.00	
Cc1ccc2nnc(Cc3ccc4ncc(-c5cn[nH]c5)cc4c3)n2n1 [compound 125, 6-(6-Methyl-[1,2,4]triazolo[4,3-b]pyridazin-3-ylmethyl)-3-(1H-pyrazol-4-yl)-quinoline]		> 7.00	6.00 to 7.00
Cc1ccc2nnc(Cc3ccc4ncc(-c5cnn(C6CCNCC6)c5)cc4c3)n2n1 [compound 126]		> 7.00	> 7.00
Cc1ccc2nnc(Cc3ccc4ncc(-c5cc(F)cc(F)c5)cc4c3)n2n1 [compound 128]		6.00 to 7.00	5.00 to 6.00
Cc1ccc2nnc(Cc3ccc4ncc(-c5cncnc5)cc4c3)n2n1 [compound 129]		6.00 to 7.00	5.00 to 6.00
Cc1ccc2nnc(Cc3ccc4ncc(-c5cccc(C#N)c5)cc4c3)n2n1 [compound 130]		> 7.00	> 7.00
Cc1ccc2nnc(Cc3ccc4ncc(-c5cccnc5)cc4c3)n2n1 [compound 131]		> 7.00	> 7.00
Cc1ccc2nnc(Cc3ccc4ncc(-n5ccnc5)cc4c3)n2n1 [compound 132, 3-Imidazol-1-yl-6-(6-methyl-[1,2,4]triazolo[4,3-b]pyridazin-3-ylmethyl)-quinoline]		6.00 to 7.00	6.00 to 7.00
Cc1ccc2nnc(Cc3ccc4ncc(-c5cnn(CCN6CCOCC6)c5)cc4c3)n2n1 [compound 133]		> 7.00	> 7.00
Cc1ccc2nnc(Cc3ccc4ncc(-c5cnn(CC(=O)O)c5)cc4c3)n2n1 [compound 134]		> 7.00	6.00 to 7.00
Cc1ccc2nnc(Cc3ccc4ncc(-c5cccc(C(=O)O)c5)cc4c3)n2n1 [compound 135]		6.00 to 7.00	5.00 to 6.00

Next, values leading:

pEC50 (GTL16; Table 1)	pIC50 [1]	pEC50 (GTL16; Table 2)	Compound
> 7.00	> 7.00		CNS(=O)(=O)c1cccc(-c2ccc3nnc(Cc4ccc5ncccc5c4)n3n2)c1 [compound 48]
> 7.00	> 7.00		CS(=O)(=O)c1cccc(-c2ccc3nnc(Cc4ccc5ncccc5c4)n3n2)c1 [compound 49]
6.00 to 7.00	> 7.00		CS(=O)(=O)Nc1cccc(-c2ccc3nnc(Cc4ccc5ncccc5c4)n3n2)c1 [compound 51]
6.00 to 7.00	> 7.00		CC(=O)Nc1ccc(-c2ccc3nnc(Cc4ccc5ncccc5c4)n3n2)cc1 [compound 52]
6.00 to 7.00	> 7.00		OCc1ccc(-c2ccc3nnc(Cc4ccc5ncccc5c4)n3n2)cc1 [compound 54]
6.00 to 7.00	> 7.00		NCc1cccc(-c2ccc3nnc(Cc4ccc5ncccc5c4)n3n2)c1 [compound 55]
6.00 to 7.00	6.00 to 7.00		CNC(=O)c1cc(F)cc(-c2ccc3nnc(Cc4ccc5ncccc5c4)n3n2)c1 [compound 56]
5.00 to 6.00	6.00 to 7.00		CC(=O)Nc1cccc(-c2ccc3nnc(Cc4ccc5ncccc5c4)n3n2)c1 [compound 57]
5.00 to 6.00	6.00 to 7.00		CNC(=O)c1cccc(-c2ccc3nnc(Cc4ccc5ncccc5c4)n3n2)c1 [compound 58]
6.00 to 7.00	> 7.00		N#CCc1cccc(-c2ccc3nnc(Cc4ccc5ncccc5c4)n3n2)c1 [compound 61]
6.00 to 7.00	6.00 to 7.00		Fc1ccc(-c2ccc3nnc(Cc4ccc5ncccc5c4)n3n2)cc1 [compound 63]
> 7.00	> 7.00		CN(C)S(=O)(=O)c1cccc(-c2ccc3nnc(Cc4ccc5ncccc5c4)n3n2)c1 [compound 64]
> 7.00	> 7.00		CNc1ccc(-c2ccc3nnc(Cc4ccc5ncccc5c4)n3n2)cc1 [compound 65]
6.00 to 7.00	> 7.00		CNC(=O)c1ccc(-c2ccc3nnc(Cc4ccc5ncccc5c4)n3n2)cc1 [compound 66]
6.00 to 7.00	6.00 to 7.00		CN(C)c1cccc(-c2ccc3nnc(Cc4ccc5ncccc5c4)n3n2)c1 [compound 67]
5.00 to 6.00	6.00 to 7.00		N#Cc1cc(-c2ccc3nnc(Cc4ccc5ncccc5c4)n3n2)ccc1F [compound 69]
6.00 to 7.00	> 7.00		Fc1cc(F)cc(-c2ccc3nnc(Cc4ccc5ncccc5c4)n3n2)c1 [compound 70]
6.00 to 7.00	6.00 to 7.00		CN(C)C(=O)c1cc(F)cc(-c2ccc3nnc(Cc4ccc5ncccc5c4)n3n2)c1 [compound 71]
> 7.00	> 7.00		CCNC(=O)c1ccc(-c2ccc3nnc(Cc4ccc5ncccc5c4)n3n2)cc1F [compound 75]
> 7.00	> 7.00		Cc1cc(F)cc(-c2ccc3nnc(Cc4ccc5ncccc5c4)n3n2)c1 [compound 76]
> 7.00	> 7.00		FC(F)(F)c1cccc(-c2ccc3nnc(Cc4ccc5ncccc5c4)n3n2)c1 [compound 78]
> 7.00	> 7.00		CC(c1ccc2ncsc2c1)c1nnc2ccc(-c3cnn(C)c3)nn12 (centres unmarked) [compound 79]
> 7.00	> 7.00		Cc1cc2ncccc2cc1Cc1nnc2ccc(-c3cnn(C)c3)nn12 [compound 84]
> 7.00	> 7.00		Cc1cc2ncccc2cc1Cc1nnc2ccc(-c3cccc(C#N)c3)nn12 [compound 85]
> 7.00	> 7.00		Cn1cc(-c2ccc3nnc(Cc4c(F)cc5ncccc5c4F)n3n2)cn1 [compound 87]
> 7.00	> 7.00		Cn1cc(-c2ccc3nnc(Cc4cc5cccnc5cc4F)n3n2)cn1 [compound 90]
> 7.00	> 7.00		Cn1cc(-c2ccc3nnc(Cc4ccc5ncsc5c4)n3n2)cn1 [compound 96]
	> 7.00	6.00 to 7.00	Cn1cc(-c2cnc3ccc(Cc4nnc5ccc(C(F)(F)F)nn45)cc3c2)cn1 [compound 123, 3-(1-Methyl-1H-pyrazol-4-yl)-6-(6-trifluoromethyl-[1,2,4]triazolo[4,3-b]pyridazin-3-ylmethyl)-quinoline]
